Converted amounts (≈) assume the structure as drawn.
Tests used:
[1] = test system: wild-type HIV-1 (IIIB); format: cell-based; conditions: selective index, CC50 vs EC50 IIIB
[2] = Aqueous solubility measured by HPLC; format: physicochemical
[3] = aqueous medium at pH 7.4 (buffer not named), pH 7.4

Row | Structure (SMILES) | SI [1] | solubility [2, 3] | solubility ([2]; aqueous medium at pH 2.0 (buffer not named), pH 2)
1 | Cc1cc(C#N)cc(C)c1Oc1cc(Nc2ccc(C#N)cc2)c(N)cc1CO [7a] | 114,019 | < 1 µg/mL | –
2 | COCc1cc(N)c(Nc2ccc(C#N)cc2)cc1Oc1c(C)cc(CCC#N)cc1C [12a] | >61,538 | < 1 µg/mL | –
3 | Cc1cc(C#N)cc(C)c1Oc1cc(Nc2ccc(C#N)cc2)c(N)cc1CNCCCO [7d] | 2,475 | – | –
4 | CC(=O)OCc1cc(N)c(Nc2ccc(C#N)cc2)cc1Oc1c(C)cc(CCC#N)cc1C [12b] | 46,667 | < 1 µg/mL | –
5 | CC(=O)OCc1cc(N)c(Nc2ccc(C#N)cc2)cc1Oc1c(C)cc(C#N)cc1C [7h] | – | < 1 µg/mL | –
6 | COCc1cc(N)c(Nc2ccc(C#N)cc2)cc1Oc1c(C)cc(/C=C/C#N)cc1C [11a] | 8,763 | < 1 µg/mL | –
7 | CC(=O)OCc1cc(N)c(Nc2ccc(C#N)cc2)cc1Oc1c(C)cc(/C=C/C#N)cc1C [11b] | 117,439 | < 1 µg/mL | –
8 | Cc1cc(C#N)cc(C)c1Oc1cc(Nc2ccc(C#N)cc2)c(N)cc1CNC1CC1 [7c] | 1,142 | – | 285 µg/mL (≈ 673 µM)
9 | COCc1cc(N)c(Nc2ccc(C#N)cc2)cc1Oc1c(C)cc(C#N)cc1C [7g] | – | < 1 µg/mL | –

Reference: paper PMC4137035 (Bioorganic & medicinal chemistry letters, 2014)
